Here are results for 29 compounds from US12421257B2, “Compositions and methods for inhibiting group II intron RNA” (YALE UNIVERSITY, priority 2018, dated 2025).

In general, IC50 refers to the concentration at which inhibition is half-maximal. As usually defined, the MIC is the lowest concentration that inhibits growth of the organism. Higher therefore signals weaker potency.

Test [1] relates to ai5γ group II intron (D135 ribozyme). Description: Fluorescent D135 ribozyme cleavage assay (IC50). It counts as biochemical, Saccharomyces cerevisiae. To be noted: D135 ribozyme cleavage of substrate 17/2 DL, 100 mM MgCl2, 500 mM KCl, 37° C., 10 minutes. As to the method: The D135 ribozyme (Su et al., 2005, Nucleic Acids Res, 33:6674-6687), fluorescently labeled oligo substrate 17/2 DL (FIG. 1A-FIG. 1D) (both at 20 nM final concentrations in 50 mM MOPS, pH 7.0, 100 mM MgCl2, 0.5M KCl), and the test compounds (final concentration of 10 μM in 50 mM MOPS, pH 7.0, 100 mM MgCl2, 0.5M KCl) were aliquoted onto black non-binding 384-well plates (Corning 3757) using the multidrop combi (ThermoFisherScientific) and pintool (V & P Scientific). The reaction mixtures were incubated at 37° C. for 45 minutes, then the reaction was quenched with 100 mM EDTA and fluorescence intensity was analyzed on a Tecan Infinite multimode plate reader (λex 520 nm, λem 560 nm, 5 nm bandwidth). Data were normalized to untreated wells and wells lacking the D135 ribozyme, and percent of inhibition was calculated using ActivityBase (IDBS). The Z′-factor was calculated as described (Zhang et al., 1999, J Biomol Screen, 4:67-73): Z′=1−3×(σp+σn)/|μp−μn|, • where μp and σn are mean value and standard deviation for the positive control (substrate only), and where μn and σn are mean value and standard deviation for the negative control (no compound). The average Z′-factor from the screen was 0.83±0.03. IC50 Measurement for the Small Molecule Inhibition of the D135 Ribozyme Cleavage Reaction.
Black 96-well plates (Corning 3695) were filled with 50 μl of solution containing 20 nM D135 ribozyme, 20 nM double-labeled substrate 17/2 DL and small molecule inhibitor in 50 mM MOPS, pH 7.0, 100 mM MgCl2 and 500 mM KCl. Small molecule inhibitors were tested at 19 different concentrations ranging from 5 nM to 1 mM. Plates were incubated at 37° C. for 10 minutes, then reaction mixtures were quenched with 100 mM EDTA and analyzed on the Synergy H1 plate reader (BioTek). Each experiment was performed in triplicate. Data were fit to a 4-parameter logistic function c+(d−c)/(1+(x/a)^b), where a is the IC50, b is the slope parameter, c is the minimum response and d is the maximum response. Data are reported as average±s.e.m

Test [2] has as its system C. parapsilosis. Description: MIC determination against C. parapsilosis. Format: cell-based, Candida parapsilosis. To be noted: Lodderomyces parapsilosis; RPMI-1640, 35° C. or 37° C., turbidity after 24 and 48 hours. As to the method:
Minimal inhibitory concentrations (MICs) for C. parapsilosis were determined in a final volume of 100 μl. Fresh stock solutions of control antifungal drugs (Amphotericin B and Itraconazole) and of test compounds were prepared at 3.2 mg/ml and at 12.8 mg/ml respectively in DMSO. After placing the stock in the first well, solutions of test compounds and antifungal controls were serially diluted 1:2 with DMSO into the first […] successive wells of a 12-well row on a 96-well plate (as described above). After dilution, 2.5 μl from each of these 10 wells were transferred onto a separate 96-well plate and diluted with 122.5 μl of RPMI-1640 medium (Sigma). Wells 11 and 12 contained 2.5 μl DMSO and 122.5 μl of RPMI-1640 as a positive growth control (no compound) and sterility control (no inoculum added). A 50 μl volume was taken from each of the RPMI dilutions (wells 1-12) and transferred to the wells of a third 96-well plate (assay plate), where they were mixed with an equal volume (50 μl) of freshly prepared inoculum of C. parapsilosis in RPMI-1640 medium, set at a density to provide the 0.5×10^3 to 2.5×10^3 colony forming units per 1 mL (except for the sterility control). Sterility control was mixed with 50 μl of sterile medium.
The final concentration range of the assay was 0.25-128 μg/ml for test compounds and 0.0625-32 μg/ml for Amphotericin B and Itraconazole. The final concentration of DMSO was 1%. The assay plate was incubated at 35° C. or 37° C. and visually analyzed for turbidity after 24 and 48 hours of incubation. The lowest compound concentration at which no growth was apparent is reported as the MIC. All experiments were performed in triplicate.

The subject of test [3] is HEK-293T cells. Description: Cytotoxicity in HEK-293T cells (Cell Titer Glo). It counts as cell-based, human. To be noted: Homo sapiens, cytotoxicity, 24 hours with compound, read-out: IC50 HEK-293. As for the experimental part: HEK-293T cells were cultured in Dulbecco's Modified Eagle's Medium (DMEM) (Gibco) supplemented with 10% Fetal Bovine Serum (FBS, Gibco) and 100 U/ml of Penicillin-Streptomycin (Gibco) at 37° C. and 5% CO2. For the cytotoxicity experiments, cells were aliquoted into black 96-well plates with a clear bottom (Corning 3603) at a concentration of 10,000 cells per well. The cells were grown at 37° C., 5% CO2 for 5-6 hours, then the medium was replaced with the same medium without FBS and cells were grown at 37° C., 5% CO2 for 24 hours. Freshly prepared stock solutions of test compounds (12.8 mg/ml in DMSO) were serially diluted 1:2 with DMSO into the first 11 successive wells of a 12-well row on a 96-well plate as described above. Well 12 was used as a growth control (no compound). […] After incubation, cell viability was determined using the luminescent Cell Titer Glo cell viability assay (Promega), in which 100 μl of the assay reagent was added to each well of the assay plate. After gentle shaking for 7-10 minutes, the plates were analyzed on a Synergy H1 plate reader (BioTek). Luminescence was plotted against the compound concentration and IC50 values were determined by fitting the data to a 4-parameter logistic function c+(d−c)/(1+(x/a)^b), where a is the IC50, b is the slope parameter, c is the minimum response and d is the maximum response. Experiments were replicated to ensure reproducibility.
On the technique in general: Cellular ATP, detected with luciferase, serves as a proxy for viable cell number.

Values after ≈ are worked out from the molar mass of the structure shown.

With `CCN(CC)CCNC(=O)c1c(C)[nH]c(/C=C/C(=O)c2cc(O)c(O)c(O)c2)c1C` [NED-2041], the half-inhibitory concentration (IC50) in test [1] turned out to be 12 ± 4 µM. The compound further returned an MIC in test [2] of 32 µg/mL (≈ 77 µM).
As for `O=C(N/N=C/c1cc(F)c(O)c(F)c1)c1cc(O)c(O)c(O)c1` [APY-031], the figures for the IC50 in test [1] and in test [3] were 6.3 µM and 47.8 µg/mL, respectively. For the same compound, it took 32 µg/mL (≈ 98.7 µM) to inhibit growth in test [2] (MIC).
The corresponding values for `COc1ccc(/C=C/C=N/NC(=O)c2cc(O)c(O)c(O)c2)cc1` [APY-058] are 10.1 µM, 23 µg/mL and 4 µg/mL (≈ 12.2 µM).
Turning to `O=C1/C(=C/c2cc(O)c(O)c(O)c2)Oc2ccccc21` [APY-024, (Z)-2-(3,4,5-Trihydroxybenzylidene)benzofuran-3(2H)-one], the IC50 in test [3] was determined as 23 ± 2 µg/mL. The compound further registered an MIC in test [2] of 8 µg/mL (≈ 29.6 µM).
Take `O=C(N/N=C/c1ccc(O)c(Cl)c1)c1cc(O)c(O)c(O)c1` [APY-034]: the half-inhibitory concentration (IC50) in test [1] amounted to 4.7 µM; in test [3] it was 54.5 µg/mL. In test [2], this compound returned an MIC of 8 µg/mL (≈ 24.8 µM).
Taken in the same sequence, the figures for `O=C(N/N=C/c1cccc(O)c1O)c1cc(O)c(O)c(O)c1` [APY-037] were 3.7 µM, 5.4 µg/mL and 8 µg/mL (≈ 26.3 µM).
Taken in the same sequence, the figures for `CCN(CC)Cc1ccc(-c2ccc(-c3nc(-c4cc(O)c(O)c(O)c4)cs3)cc2)cc1` [APY-092] were 1.3 µM, 24.8 µg/mL and 16 µg/mL (≈ 35.8 µM).
For `CN1CCC(CNC(=O)c2ccc3oc(C(=O)c4cc(O)c(O)c(O)c4)cc3c2)CC1` [NED-2023, N-((1-methylpiperidin-4-yl)methyl)-2-(3,4,5-trihydroxybenzoyl)-benzofuran-5-carboxamide], the values for the half-inhibitory concentration (IC50) in test [1] and in test [3] were 6 ± 2 µM and 36 µg/mL, respectively. For the same compound, in test [2], the lowest concentration to inhibit growth (MIC) was 16 µg/mL (≈ 37.7 µM).
Taken in the same sequence, the figures for `O=C(c1cc(O)c(O)c(O)c1)N1CCC(c2noc3cc(F)ccc23)CC1` [APY-088] were 24 µM, 6.55 µg/mL and 16 µg/mL (≈ 43 µM).
The corresponding values for `CCCCNc1nc(-c2cc(O)c(O)c(O)c2)cs1` [NED-2034] are greater than 1000 µM, 22 µg/mL and 8 to 16 µg/mL (≈ 28.5 to 57.1 µM).
Taken in the same sequence, the figures for `COc1cc(/C=N/NC(=O)c2cc(O)c(O)c(O)c2)cc(O)c1OC` [APY-036] were 7.7 µM, 10.4 µg/mL and 4 µg/mL (≈ 11.5 µM).
As to `COc1ccc2cc(/C=N/NC(=O)c3cc(O)c(O)c(O)c3)ccc2c1` [NED-2136], the IC50 was found to be 1.35 ± 0.15 µM in test [1] and 1 µg/mL in test [3]. Also, it took 2 µg/mL (≈ 5.68 µM) to inhibit growth in test [2] (MIC).
The corresponding values for `CN(C)c1ccc(/C=N/NC(=O)c2cc(O)c(O)c(O)c2)cc1` [NED-2048, (E)-N′-(4-(dimethylamino)benzylidene)-3,4,5-trihydroxybenzohydrazide] are 4 ± 1 µM, 9.8 µg/mL and 4 to 8 µg/mL (≈ 12.7 to 25.4 µM).
The corresponding values for `O=C(c1cc(O)c(O)c(O)c1)N1CCC(c2ccccc2)CC1` [APY-087] are 79 µM, 8.4 µg/mL and 32 µg/mL (≈ 102 µM).
On to `O=C(c1cc(O)c(O)c(O)c1)c1cc2cc(-c3ccc(C(=O)NC4CCCC4)c(Cl)c3)ccc2o1` [APY-095], for which, in test [3], the IC50 was determined as 2.5 µg/mL. In addition, the MIC in test [2] fell in the range of 4 to 8 µg/mL (≈ 8.13 to 16.3 µM).
In the case of `O=C(N/N=C/c1ccc(O)cc1Cl)c1cc(O)c(O)c(O)c1` [APY-033], the 50% inhibitory concentration (IC50) turned out to be 6.5 µM in test [1] and 50 µg/mL in test [3]. The same compound came in with a minimum inhibitory concentration (MIC) in test [2] of 8 µg/mL (≈ 24.8 µM).
On to `CCN(Cc1ccccc1)C(=O)c1ccc(-c2ccc3oc(C(=O)c4cc(O)c(O)c(O)c4)cc3c2)cc1` [APY-096], for which the IC50 in test [3] amounted to 1.4 µg/mL. In test [2], this compound registered a minimal inhibitory concentration (MIC) of 2 to 4 µg/mL (≈ 3.94 to 7.88 µM).
For `O=C(c1ccc([N+](=O)[O-])cc1)c1cc2cc(-c3ccc(CO)cc3)ccc2o1` [APY-100], the IC50 in test [1] is greater than 1000 µM; in test [3], greater than 128 µg/mL. The same compound gave an MIC in test [2] greater than 128 µg/mL.
Take `CS(=O)(=O)c1ccc(C(=O)c2cc3cc(-c4ccc(CO)cc4)ccc3o2)cc1` [APY-099]: the half-maximal inhibitory concentration (IC50) in test [1] was greater than 1000 µM; in test [3], 8.2 µg/mL. The compound also displayed an MIC in test [2] greater than 128 µg/mL.
For the compound `CC(C)N1CCN(C(=O)c2ccc3oc(C(=O)c4cc(O)c(O)c(O)c4)cc3c2)CC1` [NED-2022, (4-isopropylpiperazin-1-yl)(2-(3,4,5-trihydroxybenzoyl)-benzofuran-5-yl)methanone], the half-inhibitory concentration (IC50) in test [1] was 52 ± 12 µM. In addition, the MIC in test [2] stood at 16 µg/mL (≈ 37.7 µM).
`O=C(N/N=C/C1CCCCC1)c1cc(O)c(O)c(O)c1` [NED-2251, (E)-N′-(cyclohexylmethylene)-3,4,5-trihydroxybenzohydrazide]: in test [2], the minimal inhibitory concentration (MIC) was 16 to 32 µg/mL (≈ 57.5 to 115 µM).
Turning to `CCCCNS(=O)(=O)c1ccc(-c2ccc3oc(C(=O)c4cc(O)c(O)c(O)c4)cc3c2)cc1` [APY-094, N-Butyl-4-{2[(3,4,5-trihydroxyphenyl)carbonyl]-1-benzofuran-5-yl}benzene-1-sulfonamide], the IC50 in test [3] worked out at 15 ± 4 µg/mL. Besides, the minimal inhibitory concentration (MIC) in test [2] is 8 to 16 µg/mL (≈ 16.6 to 33.2 µM).
The corresponding values for `O=C(c1cc(O)c(O)c(O)c1)c1cc2ccccc2o1` [APY-068, Benzofuran-2-yl(3,4,5-trihydroxyphenyl)methanone] are 1.3 ± 0.3 µg/mL and 16 µg/mL (≈ 59.2 µM).
Take `O=C(O)c1ccc2oc(C(=O)c3cc(O)c(O)c(O)c3)cc2c1` [NED-2017]: the half-maximal inhibitory concentration (IC50) in test [1] was greater than 1000 µM. Moreover, in test [2], the minimum inhibitory concentration (MIC) lay within 16 to 32 µg/mL (≈ 50.9 to 102 µM).
The corresponding values for `Cc1ccc(NC(=O)c2ccc3oc(C(=O)c4cc(O)c(O)c(O)c4)cc3c2)c(C)c1` [NED-2021, N-(2,4-dimethylphenyl)-2-(3,4,5-trihydroxybenzoyl)benzofuran-5-carboxamide] are greater than 1000 µM and 32 to 64 µg/mL (≈ 76.7 to 153 µM).
The corresponding values for `Cc1[nH]c(/C=C/C(=O)c2cc(O)c(O)c(O)c2)c(C)c1C(=O)N1CCC(N(C)C)CC1` [NED-2042] are greater than 1000 µM and 16 µg/mL (≈ 37.4 µM).
The corresponding values for `COc1cc(/C=N/NC(=O)c2cc(O)c(O)c(O)c2)cc(OC)c1OC` [NED-2039, (E)-3,4,5-trihydroxy-N′-(3,4,5-trimethoxybenzylidene)benzohydrazide] are 6 ± 1 µM and 8 µg/mL (≈ 22.1 µM).
For the compound `NNC(=O)c1cc(O)c(O)c(O)c1` [NED-2047, 3,4,5-trihydroxybenzohydrazide], in test [1], the half-inhibitory concentration (IC50) was 77 ± 3 µM. For the same compound, the MIC in test [2] was in the range of 16 to 32 µg/mL (≈ 86.9 to 174 µM).
Taken in the same sequence, the figures for `COc1cc(/C=C2\Oc3cc(O)cc(O)c3C2=O)cc(OC)c1` [APY-012] were greater than 500 µM and greater than 128 µg/mL.
